Results from US20170114128A1, “USE OF TGF-BETA ANTAGONISTS OF TREAT TYPE-2 DIABETES” (ALBERT EINSTEIN COLLEGE OF MEDICINE, INC., priority 2014, published 2017).
*1 amine or outer side, *2 acyl side, *3 side chain or, on linkers, in order; H or OH if unused. Where a SMILES comes first, the peptide text is derived from it. Bridges are numbered along the chain shown (N, C = ends). Roman numbers before positions name the chains, in order. [ ]: non-standard residue; d: D form. Actinocin(9to1) = Cc1c2oc3c(C)ccc(C(=O)[*:1])c3nc-2c(C(=O)[*:2])c(N)c1=O; NMeV = CN[C@H](C(=O)O)C(C)C; Sar = CNCC(=O)O

How the values were obtained:
[1] = system: C57BL/6 mice with HFD-induced obesity; experiment: Third-ventricle injection of TGFβ antagonist, GTT and ITT in mice with HFD-induced obesity; assay type: in vivo; conditions: HFD for 3 months; single injection in the third ventricle, overnight-fasted; vs vehicle; 2-hour treatment duration
From the text: (§1) Central TGFβ blockade reverses glucose disorder under obesity or aging: It was studied whether TGFβ blockade could be applied to the CNS in order to reverse glucose and insulin disorders under disease conditions. To address this question, a mouse model was employed with HFD-induced obesity and therefore glucose and insulin intolerance. In this study, C57BL/6 mice were maintained under a HFD vs. a chow for 3 months. Subsequently, TGFβ antagonist SB431542 vs. vehicle was administrated to overnight-fasted mice through pre-implanted cannula. […] In parallel, using aging paradigm, it was further asked if TGFβ blockade could be used to intervene with glucose and insulin disorders independently of HFD feeding. To address this question, a similar procedure was applied to young vs. old mice; both mice were maintained on a normal chow since weaning. As shown in FIG. 7e-h, aging was associated with impairment of glucose tolerance and insulin tolerance in control group. […] Altogether, central inhibition of TGFβ through a pharmacological approach acutely normalizes the brain function to improve glucose and insulin homeostasis and treat type-2 diabetes.
(§2) Animals. […] Food intake and body weight of mice were measured using a laboratory scale. […] Blood glucose levels during GTT and ITT were measured with LifeScan® blood glucose monitoring system. […]

[2] = system: old mice maintained on a normal chow; experiment: Third-ventricle injection of TGFβ antagonist, GTT and ITT in aging paradigm; assay type: in vivo; conditions: hypothalamic third-ventricle injection
From the text: as §1, §2

hypothalamic GT1-7 cells = experiment: IκBα mRNA levels in GT1-7 cells after TGF-β1 treatment; assay type: cell-based; conditions: transcription inhibitor added to TGF-β1-treated cells
From the text: TGF-β degrades IκBα mRNA to atypically activate NF-κB: RNA SGs/PBs have the function to degrade mRNAs by targeting the AU-rich element (AUE) at the 3′ untranslated region (UTR) (36-38). […] This information led to the suspicion that TGF-β could work to degrade IκBα mRNA. […] To test if TGF-β induced IκBα mRNA decay is accountable for the glucose metabolism disorder, an experiment was designed to study if the pro-diabetic effect of brain TGF-β excess could be reversed through directly increasing hypothalamic IκBα mRNA. Using an approach which was established previously (23), a lentiviral system was employed to deliver exogenous Iκbα mRNA into the mediobasal hypothalamus of chow-fed C57BL/6 mice, and indeed, this lentivirus-delivered Iκbα mRNA prevented TGF-β1 injection from activating hypothalamic NF-κB (FIG. 5f). Metabolic analysis confirmed that this treatment attenuated the effect of TGF-β1 from impairing insulin-dependent glucose control (FIG. 5g).
Cell culture. GT1-7 cells were cultured as described previously (14). Briefly, GT1-7 cells were maintained in Dulbecco's Modified Eagle's Medium (Invitrogen) with 10% fetal bovine serum (Hyclone) and penicillin/streptomycin (Invitrogen), at 37° C. in a humidified atmosphere containing 5% CO2. Cells were fasted in serum-free medium for an overnight period, and then were subjected to TGF-β1 treatment at the indicated dose and time course.

| Compound | glucose intolerance (GTT) [1] | insulin intolerance (ITT) [1] | glucose intolerance (GTT) [2] | insulin intolerance (ITT) [2] | IκBα mRNA decay (hypothalamic GT1-7 cells) |
| --- | --- | --- | --- | --- | --- |
| NC(=O)c1ccc(-c2nc(-c3ccc4c(c3)OCO4)c(-c3ccccn3)[nH]2)cc1 [SB431542, 4-[4-(1,3-benzodioxol-5-yl)-5-(2-pyridinyl)-1H-imidazol-2-yl]benzamide] | significantly reduced | significantly reduced | significant reductions | significant reductions | – |
| Cc1c2oc3c(C)ccc(C(=O)N[C@@H]4C(=O)N[C@H](C(C)C)C(=O)N5CCC[C@H]5C(=O)N(C)CC(=O)N(C)[C@@H](C(C)C)C(=O)O[C@@H]4C)c3nc-2c(C(=O)N[C@@H]2C(=O)N[C@H](C(C)C)C(=O)N3CCC[C@H]3C(=O)N(C)CC(=O)N(C)[C@@H](C(C)C)C(=O)O[C@@H]2C)c(N)c1=O [actinomycin D, reference compound] (I: T[dV]P[Sar][NMeV] / II: T[dV]P[Sar][NMeV]; ester I:1-I:C, II:1-II:C; linker I:N-II:N via Actinocin(9to1)) | – | – | – | – | further accelerated |
